Experimental data taken from patent publication US9669028B2, “Substituted 5-(pyrazin-2-yl)-1H-pyrazolo [3, 4-B] pyridine and pyrazolo [3, 4-B] pyridine derivatives as protein kinase inhibitors” (Arrien Pharmaceuticals LLC, priority 2011, dated 2017).
pIC50: −log10 of the molar value. Values after ≈ are worked out from the molar mass of the structure shown. Each block holds one molecule with its values, some of them ahead of it.

Tests used:
recombinant human MAO-B = recombinant human MAO-B (Homo sapiens (Human), UniProt P27338); test: Inhibition of monoamine oxidase MAO-B; assay type: biochemical; settings: kynuramine 50 μM, 25 min at 37° C.
Experimental: (§1) Test compounds (0.01-100 μM) final DMSO concentration 0.1%, were incubated with recombinant human MAO-A (2 μg/mL) or MAO-B (2 μg/mL) in the presence of the probe substrate kynuramine (50 μM) for 25 min at 37° C. […] The reactions were terminated by addition of methanol containing internal standard for analytical quantification. The quenched samples were incubated at 4° C. for 10 min and centrifuged at 4° C. for 10 min. The supernatant was removed and analyzed by LC-MS/MS for the probe metabolite 4-hydroxyquinoline.

[1] = system: 299 protein kinases+17 additional preview kinases; test: Protein Kinase Selectivity Profiler; assay type: biochemical, human; settings: 10 μM ATP
Experimental: In vitro profiling of the 317 member kinase panel was performed at Reaction Biology Corporation using the “HotSpot” assay platform. Briefly, specific kinase/substrate pairs along with required cofactors were prepared in reaction buffer; 20 mM Hepes (pH 7.5), 10 mM MgCl2, 1 mM EGTA, 0.02% Brij35, 0.02 mg/ml BSA, 0.1 mM Na3VO4, 2 mM DTT, 1% DMSO. Compounds were delivered into the reaction, followed ˜20 min later by addition of a mixture of ATP (Sigma) and 33P ATP (PerkinElmer) to a final concentration of 10 μM. Reactions were carried out at 25° C. for 120 min, followed by spotting of the reactions onto P81 ion exchange filter paper (Whatman). Unbound phosphate was removed by extensive washing of filters in 0.75% phosphoric acid. […] IC50 values and curve fits were obtained using Prism (GraphPad Software). Kinome tree representations were prepared using Kinome Mapper (http://www.reactionbiology.com/apps/kinome/mapper/Launch Kinome.htm). Specifically for the LRRK2 enzyme the substrate LRRKtide (gene bank and protein access numbers NP_940980.2 Q5S007) and clone aa 970-2527 expressed in baculovirus in insect cells with N-terminal GST tag was employed in the study protocol. In the case of DYRK1A (SEQ ID NO 16) the substrate casein (gene bank and protein access numbers NP_001387 Q13627) full length clone expressed in insect with n-terminal tag was used.
A control compound was tested in 10-dose IC50 mode with 3-fold serial dilution starting at 20 μM. Reactions were carried out at 10 μM ATP. Data pages include raw data, % Enzyme activity (relative to DMSO controls), and curve fits.

[2] = system: MPTP-injected C57 black mice; test: MPTP mouse model, post-treatment study; assay type: in vivo; settings: post-administration, oral and i.v routes
Experimental: 32 C57 black mice (C57/bl6, 6-8 week old, 25-30 g) were purchased from Charles River Laboratories, Ohio. […] All animals were housed in Laboratory of Animal Resources vivarium at Iowa State University under standard conditions: constant temperature (22±1° C.), humidity (relative, 30%), and a 12-h light/dark cycle. Mice were allowed free access to food and water. Use of the animals and protocol procedures were approved and supervised by the Committee on Animal Care at Iowa State University (Ames, Iowa). Test compounds were dissolved in PBS for this study. Prior to treatment animals were pre-trained on rotarod for at least 3 minutes every day for three successive days. Group A animals were injected with saline (i.p.) to be used as controls. MPTP was dissolved in PBS and injected intraperitoneally (i.p.) at doses of 25 mg/kg, once daily for 5 days to group B, C and D animals. On day 4, prior to 4th MPTP injection, group C animals received test compounds (30 mg/kg, oral) daily for eight days. Similarly, on day 4, prior to 4th MPTP injection, group D animals received test compounds (5 mg/kg, i.v) daily for eight days. On day 9 (Post-test compounds administration) or day 12 (7 days post-MPTP), 4 animals/group were sacrificed, different brain regions including striatum and substantia nigra were dissected. Left striatum were used for neurochemical analysis. Other 4 animals/group were perfused and used for TH immunohistological studies.

in vivo = settings: male, Sprague Dawley
From the text: To investigate the pharmacokinetic profiles of test compound following intravenous bolus administration and oral gavage in male Sprague Dawley rats.

LRRK2 = LRRK2 (Homo sapiens (Human), UniProt Q5S007); test: LRRK2 Kinase Assay; assay type: biochemical; settings: 10 μM ATP
Procedure, shortened: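 Radiometric filter-binding assay: compound pre-incubated ~20 min with kinase and substrate peptide in 20 mM HEPES pH 7.5, 10 mM MgCl2, 1% DMSO, then 10 μM ATP with 33P-ATP added.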

recombinant human MAO-A = recombinant human MAO-A (Homo sapiens (Human), UniProt P21397); test: Inhibition of monoamine oxidase MAO-A; assay type: biochemical; settings: kynuramine 50 μM, 25 min at 37° C.
Experimental: as §1

[3] = system: MPTP-injected C57 black mice; test: MPTP mouse model of Parkinson's disease, oral pre-treatment; assay type: in vivo; settings: for protection against MPTP-induced TH cell loss and dopaminergic degeneration in substantia nigra and striatum: 10 mg/kg and 30 mg/kg oral; for locomotor activities in MPTP-injected mice / striatal dopamine levels in MPTP treated mice: orally administered, pre-treatment
DYRK1A = DYRK1A (Homo sapiens (Human), UniProt Q13627); test: In vitro DYRK1A inhibition assay; assay type: biochemical
LRRK2 G2019S = LRRK2 G2019S (Homo sapiens (Human), UniProt Q5S007, G2019S); test: LRRK2 G2019S Kinase Assay; assay type: biochemical; settings: 10 μM ATP
Procedure, shortened: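 Radiometric filter-binding assay: enzyme, substrate peptide and compound were mixed on ice, ATP added, then incubated 20 min at 30° C. Reaction was stopped with phosphoric acid and the peptide captured on filters. Incorporated radioactivity was read by scintillation counting; staurosporine served as reference.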

[4] = system: Rat hepatoma (H4IIE) cell line; test: In vitro toxicology, general cytotoxicity; assay type: cell-based; settings: rat, 24 h
Experimental: Cells were seeded into 96-well plates and cultured in medium containing 20% bovine serum. […] General cytotoxicity was evaluated by monitoring membrane integrity (MBR, cell supernatant), cell mass (PI) and mitochondrial function (cellular ATP levels). Rotenone was included as a positive control because it produces measurable effects in all three assays. DMSO at 0.5% in medium was included as a negative control. Three wells per exposure concentration were used in each assay. Results are summarized in Table 8 and are expressed as percent of control, with control values set at 100%. […] Test compounds 13 and 13 HCl were rank-ordered from most to least toxic based on individual membrane integrity and ATP responses as well as resultant TC50 values.
Test compounds 13 and 13 HCl were rank-ordered from highest to lowest probability of producing toxicity based first on membrane toxicity, then on ATP, and finally on cell mass (PI). It is important to note that within a given grouping compounds may be classified as to their primary effect being either cytotoxic, cytostatic, or reducing mitochondrial function. In general, compound responses above 80% of vehicle control are considered to be low-to-no effect, moderates generally rank 80% to 50% of vehicle control, and those compounds that cross the 50% mark are considered to have higher probability of toxicity.

LRRK2, sequence (Q5S007 970-2527): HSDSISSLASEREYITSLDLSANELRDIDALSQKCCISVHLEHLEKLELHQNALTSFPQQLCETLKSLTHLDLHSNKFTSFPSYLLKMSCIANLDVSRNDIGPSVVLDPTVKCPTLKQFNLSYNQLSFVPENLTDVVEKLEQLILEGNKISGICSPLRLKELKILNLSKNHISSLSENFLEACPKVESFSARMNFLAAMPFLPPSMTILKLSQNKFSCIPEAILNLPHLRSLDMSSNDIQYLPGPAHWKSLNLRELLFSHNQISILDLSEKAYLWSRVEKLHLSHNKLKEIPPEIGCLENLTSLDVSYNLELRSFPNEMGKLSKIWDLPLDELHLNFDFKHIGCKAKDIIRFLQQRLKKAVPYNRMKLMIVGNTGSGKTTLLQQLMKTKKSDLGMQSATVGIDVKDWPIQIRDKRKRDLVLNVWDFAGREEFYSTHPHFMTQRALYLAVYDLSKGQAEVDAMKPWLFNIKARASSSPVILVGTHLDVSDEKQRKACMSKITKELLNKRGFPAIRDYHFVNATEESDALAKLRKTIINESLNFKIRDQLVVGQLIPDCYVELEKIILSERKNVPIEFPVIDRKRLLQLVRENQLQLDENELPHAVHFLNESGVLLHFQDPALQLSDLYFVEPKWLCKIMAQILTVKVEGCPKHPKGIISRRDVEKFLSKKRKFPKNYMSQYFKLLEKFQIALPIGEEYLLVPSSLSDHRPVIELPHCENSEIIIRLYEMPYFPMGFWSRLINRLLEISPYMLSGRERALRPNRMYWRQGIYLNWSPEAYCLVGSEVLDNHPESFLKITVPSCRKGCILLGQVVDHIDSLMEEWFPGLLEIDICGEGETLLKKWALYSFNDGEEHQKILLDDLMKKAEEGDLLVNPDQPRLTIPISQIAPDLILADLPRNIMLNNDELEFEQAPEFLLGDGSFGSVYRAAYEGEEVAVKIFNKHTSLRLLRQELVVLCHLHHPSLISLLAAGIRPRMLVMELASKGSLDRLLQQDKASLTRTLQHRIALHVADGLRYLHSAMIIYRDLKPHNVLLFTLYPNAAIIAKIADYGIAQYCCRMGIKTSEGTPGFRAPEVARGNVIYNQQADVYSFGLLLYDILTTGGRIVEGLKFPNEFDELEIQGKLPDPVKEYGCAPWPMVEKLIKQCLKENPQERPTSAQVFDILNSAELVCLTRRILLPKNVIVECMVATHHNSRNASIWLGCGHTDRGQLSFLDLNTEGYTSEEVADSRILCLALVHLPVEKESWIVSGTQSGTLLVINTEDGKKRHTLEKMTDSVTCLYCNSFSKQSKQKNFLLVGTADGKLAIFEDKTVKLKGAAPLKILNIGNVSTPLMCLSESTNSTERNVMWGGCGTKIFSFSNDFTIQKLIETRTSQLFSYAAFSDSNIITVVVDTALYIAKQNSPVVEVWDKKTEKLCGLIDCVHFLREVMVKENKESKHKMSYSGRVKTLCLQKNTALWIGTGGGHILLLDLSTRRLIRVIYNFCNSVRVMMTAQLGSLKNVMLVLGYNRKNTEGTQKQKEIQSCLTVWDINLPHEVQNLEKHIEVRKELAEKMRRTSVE
LRRK2 G2019S, sequence (Q5S007 970-2527 G2019S): as the sequence (Q5S007 970-2527) above, with G1050S counted along it
recombinant human MAO-A, sequence (P21397 whole entry): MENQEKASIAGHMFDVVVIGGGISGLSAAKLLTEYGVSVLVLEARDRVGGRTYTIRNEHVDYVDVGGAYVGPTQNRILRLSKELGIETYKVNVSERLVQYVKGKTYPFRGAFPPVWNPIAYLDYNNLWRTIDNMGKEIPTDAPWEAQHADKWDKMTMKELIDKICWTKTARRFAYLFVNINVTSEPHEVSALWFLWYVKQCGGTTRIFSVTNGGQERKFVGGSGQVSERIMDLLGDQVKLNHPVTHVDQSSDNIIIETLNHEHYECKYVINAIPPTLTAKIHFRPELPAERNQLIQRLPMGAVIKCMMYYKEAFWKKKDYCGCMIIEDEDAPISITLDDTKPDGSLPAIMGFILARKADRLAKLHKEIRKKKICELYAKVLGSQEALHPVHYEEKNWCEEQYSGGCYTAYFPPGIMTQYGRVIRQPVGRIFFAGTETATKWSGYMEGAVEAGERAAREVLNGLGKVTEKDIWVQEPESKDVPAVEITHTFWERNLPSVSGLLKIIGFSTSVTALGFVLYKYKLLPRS
recombinant human MAO-B, sequence (P27338 whole entry): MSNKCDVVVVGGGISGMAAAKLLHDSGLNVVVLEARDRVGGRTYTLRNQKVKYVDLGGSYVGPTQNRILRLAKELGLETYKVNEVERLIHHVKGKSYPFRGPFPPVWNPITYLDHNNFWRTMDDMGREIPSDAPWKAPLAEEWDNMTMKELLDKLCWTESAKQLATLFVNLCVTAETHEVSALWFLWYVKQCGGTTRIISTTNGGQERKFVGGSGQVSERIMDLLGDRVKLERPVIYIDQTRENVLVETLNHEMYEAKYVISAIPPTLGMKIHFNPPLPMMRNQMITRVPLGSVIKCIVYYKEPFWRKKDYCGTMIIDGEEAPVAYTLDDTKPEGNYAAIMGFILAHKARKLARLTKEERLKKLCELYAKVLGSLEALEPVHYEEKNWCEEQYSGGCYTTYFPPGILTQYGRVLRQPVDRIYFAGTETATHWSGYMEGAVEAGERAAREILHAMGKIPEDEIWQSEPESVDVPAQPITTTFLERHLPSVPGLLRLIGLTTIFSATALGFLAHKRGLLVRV

pIC50 (recombinant human MAO-B): 5.06
% enzyme inhibition relative to DMSO controls ([1]; LRRK2, LRRK2 G2019S, CHK1, DYRK1A, FLT3, MLK1, TNIK, TRKA, single dose 0.5 μM, 1 μM): 5-15%
AUC(0-t) (in vivo; rat, iv, 5 mg/kg): 1020 ng·h/mL
Vd (in vivo; rat, iv, 5 mg/kg): 15.2 L/kg
clearance (in vivo; rat, iv, 5 mg/kg): 123 mL/min/kg
half-life (in vivo; rat, iv, 5 mg/kg): 2.26 h
AUC(0-t) (in vivo; rat, po, 30 mg/kg): 1040 ng·h/mL
Cmax (in vivo; rat, po, 30 mg/kg): 133 ng/mL
F (in vivo; rat, po, 30 mg/kg): 24%
Tmax (in vivo; rat, po, 30 mg/kg): 6.7 h
pIC50 (LRRK2): > 6.30
pIC50 (recombinant human MAO-A): < 4.00
pIC50 (DYRK1A): > 6.30
pIC50 (LRRK2 G2019S): > 6.30
Compound: c1cc2cc(-c3cncc(N4CCOCC4)n3)cnc2[nH]1 [Compound 148, 4-(6-(1H-pyrrolo[2,3-b]pyridin-5-yl)pyrazin-2-yl)morpholine]
protection against MPTP-induced histological deficits [2]: significantly protected
protection against MPTP-induced motor-deficits [2]: significantly protected
protection against MPTP-induced neurochemical deficits [2]: not against neurochemical deficits
protection against MPTP-induced TH cell loss and dopaminergic degeneration in substantia nigra and striatum [3]: dose-dependent protection
locomotor activities in MPTP-injected mice [3]: Improve Locomotor Activities
striatal dopamine levels in MPTP treated mice [3]: Restore Striatal Dopamine Levels

Compound: Cc1n[nH]c2ncc(-c3cncc(NC4CCN(C)CC4)n3)cc12 [Compound 13, 6-(3methyl-1H-pyrazolo[3,4-b]pyridine-5yl)-N-(1-methylpiperidine-4yl)pyrazin-2-amine]
pIC50 (recombinant human MAO-B): < 4.00
activity against kinases in broader scope, relative to DMSO control ([1]; ABL1 T315I, ALK2, ARK5, Aurora A/B/C, BRAF, C-KIT, CLK1-4, CSF1R, DYRK1A-4, FLT3, GSK3β, JAK1-3, KDR, LCK ... TRKA-C, single dose): 5-15%
solubility (physchem): 50 µM (≈ 16.2 µg/mL)
AUC(0-t) (in vivo; in vivo, iv, 5 mg/kg): 1020 ng·h/mL
Vd (in vivo; in vivo, iv, 5 mg/kg): 15.2 L/kg
clearance (in vivo; in vivo, iv, 5 mg/kg): 123 mL/min/kg
AUC(0-t) (in vivo; in vivo, po, 30 mg/kg): 1040 ng·h/mL
Cmax (in vivo; in vivo, po, 30 mg/kg): 133 ng/mL
half-life (in vivo; rat, iv, 5 mg/kg): 2.26 h
F (in vivo; rat, po, 30 mg/kg): 24%
Tmax (in vivo; rat, po, 30 mg/kg): 6.7 h
pIC50 (LRRK2): > 6.30
ATP TC50 [4]: >50 µM
Cell Mass TC50 [4]: >50 µM
Mem Tox TC50 [4]: >50 µM
ATP % Control ([4]; 5 μM): 99%
Cell Mass % Control ([4]; 5 μM): 93%
Mem Tox % Control ([4]; 5 μM): 100%
ATP % Control ([4]; 10 μM): 99%
Cell Mass % Control ([4]; 10 μM): 88%
Mem Tox % Control ([4]; 10 μM): 96%
ATP % Control ([4]; 50 μM): 74%
Cell Mass % Control ([4]; 50 μM): 71%
Mem Tox % Control ([4]; 50 μM): 94%
pIC50 (recombinant human MAO-A): < 4.00
protection against MPTP-induced TH cell loss and dopaminergic degeneration in substantia nigra and striatum [3]: dose-dependent protection
locomotor activities in MPTP-injected mice [3]: Improve Locomotor Activities
striatal dopamine levels in MPTP treated mice [3]: Restore Striatal Dopamine Levels
pIC50 (DYRK1A): > 6.30
pIC50 (LRRK2 G2019S): > 6.30
